Measurements as given in patent publication US20230013304A1, “N2-ARYLMETHYL-4-HALOALKYL-PYRIDAZIN-3-ONE CFTR MODULATORS FOR THE TREATMENT OF CYSTIC FIBROSIS” (UNIVERSITE DE REIMS CHAMPAGNE-ARDENNE, priority 2019, published 2023).

Tested on: CFTR channel
Assay: CFTR-dependent halide transport, YFP-H148Q/I152L fluorescent probe (Premo Halide Sensor kit) in osteoblasts
Format: cell-based
Conditions: for restoration of the CFTR channel activity: on average, compared with reference substances (Ivacaftor, Lumacaftor, Orkambi)
Procedure: To evaluate the action of the compounds according to the invention on the restoration of CFTR activity, said compounds were tested in vitro using a suitable Premo Halid Sensor kit (Invitrogen).
The transport of CFTR-dependant chloride ions is thus first evaluated in osteoblasts with the use of a fluorescent probe (halide-sensitive yellow fluorescent protein (YFP)-H148Q/I152 L protein (Life Technologies, Saint Aubin, France)) (FIG. 1).
48 h after transfection of the probe into the cell, CFTR channel activity is stimulated using a solution composed of forskolin, 3-isobutyl-1-methylxanthine and apigenine (each component in a concentration of 10 μM). An iodine solution (140 mM) was then added and the fluorescence was recorded using a plate reader (400 ms/point; Ft) over a period of 60 s (baseline; F0). The decrease in the Ft/F0 ratio represents the restoration of chloride activity of the CFTR channel.
For quantitative analyses, the gradients of the signals obtained are processed in non-linear regressions and correlated to the level of conductance of chloride ions.

Compound | decrease in fluorescence (Ft/F0) in the presence of the inhibitor (CFTRinh-172 10 μM, untreated osteoblasts, control) | restoration of CFTR channel activity compared with Ivacaftor and Lumacaftor (osteoblasts, FIG. 1) | restoration of the CFTR channel activity (osteoblasts, FIG. 1) | restoration of CFTR channel activity compared with Orkambi (osteoblasts, FIG. 1)
CFTRinh-172 [reference compound] | no decrease in fluorescence was observed |  |  | 
COc1ccc(Cn2nc(-c3ccc(OC(F)F)c(OC)c3)cc(C(F)(F)F)c2=O)cc1 [Compound 4, 6-(4-(difluoromethoxy)-3-methoxyphenyl)-2-(4-methoxybenzyl)-4-(trifluoromethyl)pyridazin-3(2H)-one] |  | better restoration of CFTR channel activity than those obtained with Ivacaftor and Lumacaftor | 150% | 
COc1ccc(-c2cc(C(F)(F)F)c(=O)n(Cc3ccccc3)n2)cc1OC [Compound 1, 2-benzyl-6-(3,4-dimethoxyphenyl)-4-(trifluoromethyl)pyridazin-3(2H)-one] |  | better restoration of CFTR channel activity than those obtained with Ivacaftor and Lumacaftor | 150% | restoration of CFTR channel activity similar to that obtained with Orkambi
